In patent US20090270407A1, “FUNGICIDAL ISOXAZOLIDINES” (E. I. DU PONT DE NEMOURS AND COMPANY, priority 2008, published 2009):
Where two headings read alike, the source gives them in different places. Marks after values point to notes of the source that are not given here.

Legend:
Conditions in all cases: 100 = 100 % disease control, 0 = no disease control relative to controls
Rhizoctonia oryzae = assay: Test G: turf brown patch, preventive spray on creeping bent grass seedlings, visual disease rating
Experimental: The test suspension was sprayed to the point of run-off on creeping bent grass seedlings. The following day the seedlings were inoculated with a spore suspension of Rhizoctonia oryzae (the causal agent of turf brown patch) and incubated in a saturated atmosphere at 27° C. for 48 h, and then moved to a growth chamber at 27° C. for 3 days, after which time visual disease ratings were made.
(§1) A dash (−) indicates no test results. All results are for 200 ppm except where followed by “*” which indicates 40 ppm.

Phytophthora infestans = assay type: in vivo
Septoria nodorum = assay: Test C: wheat glume blotch, preventive spray on wheat seedlings, visual disease rating
Experimental: (An asterisk “*” next to the rating value indicates a 40 ppm test suspension.)
The test suspension was sprayed to the point of run-off on wheat seedlings. The following day the seedlings were inoculated with a spore suspension of Septoria nodorum (the causal agent of wheat glume blotch) and incubated in a saturated atmosphere at 20° C. for 48 h, and then moved to a growth chamber at 20° C. for 7 days, after which time visual disease ratings were made.
as §1

Plasmopara viticola = assay: Test I: grape downy mildew, spray on grape seedlings after inoculation, visual disease rating
Text: (§2) General protocol for preparing test suspensions for Tests A-I: The test compounds were first dissolved in acetone in an amount equal to 3% of the final volume and then suspended at the desired concentration (in ppm) in acetone and purified water (50/50 mix) containing 250 ppm of the surfactant Trem® 014 (polyhydric alcohol esters). The resulting test suspensions were then used in Tests A-I. Spraying a 200 ppm test suspension to the point of run-off on the test plants was the equivalent of a rate of 500 g/ha. (An asterisk “*” next to the rating value indicates a 40 ppm test suspension.)
Grape seedlings were inoculated with a spore suspension of Plasmopara viticola (the causal agent of grape downy mildew) and incubated in a saturated atmosphere at 20° C. for 24 h. After a short drying period, the test suspension was sprayed to the point of run-off on the grape seedlings and then moved to a growth chamber at 20° C. for 6 days, after which time the test units were placed back into a saturated atmosphere at 20° C. for 24 h. Upon removal, visual disease ratings were made.
All results are for 200 ppm except where followed by “*” which indicates 40 ppm.

[1] = tested on: Puccinia recondita f. sp. tritici; assay: Test B: wheat leaf rust, preventive spray on wheat seedlings, visual disease rating
Alternaria solani = assay: Test F: tomato early blight, preventive spray on tomato seedlings, visual disease rating
Text: as §2
The test suspension was sprayed to the point of run-off on tomato seedlings. The following day the seedlings were inoculated with a spore suspension of Alternaria solani (the causal agent of tomato early blight) and incubated in a saturated atmosphere at 27° C. for 48 h, and then moved to a growth chamber at 20° C. for 5 days, after which time visual disease ratings were made.
as §1

[2] = tested on: Erysiphe graminis f. sp. tritici; assay: Test A: wheat powdery mildew, preventive spray on wheat seedlings, visual disease rating
Botrytis cinerea = assay: Test E: tomato Botrytis, preventive spray on tomato seedlings, visual disease rating
Septoria tritici = assay: Test D: wheat leaf blotch, preventive spray on wheat seedlings, visual disease rating; assay type: in vivo
Text: A dash (−) indicates no test results.

| SMILES | Test G disease control rating (Rhizoctonia oryzae; 200 ppm) [%] | Test H disease control rating (Phytophthora infestans; 200 ppm) [%] | Test C disease control rating (Septoria nodorum; 200 ppm) [%] | Test I disease control rating (Plasmopara viticola; 200 ppm) [%] | Test B disease control rating ([1]; 200 ppm) [%] | Test F disease control rating (Alternaria solani; 200 ppm) [%] | Test A disease control rating ([2]; 200 ppm) [%] | Test E disease control rating (Botrytis cinerea; 200 ppm) [%] | Test G disease control rating (Rhizoctonia oryzae; 40 ppm (marked *)) | Test H disease control rating (Phytophthora infestans; 40 ppm (marked *)) | Test C disease control rating (Septoria nodorum; 40 ppm (marked *)) | Test I disease control rating (Plasmopara viticola; 40 ppm (marked *)) | Test D disease control rating (Septoria tritici; 40 ppm (marked *)) | Test B disease control rating ([1]; 40 ppm (marked *)) | Test F disease control rating (Alternaria solani; 40 ppm (marked *)) | Test A disease control rating ([2]; 40 ppm (marked *)) | Test E disease control rating (Botrytis cinerea; 40 ppm (marked *)) | Test D disease control rating (Septoria tritici; 200 ppm) [%] |
| --- | --- | --- | --- | --- | --- | --- | --- | --- | --- | --- | --- | --- | --- | --- | --- | --- | --- | --- |
| CN1OC(C)(c2cccnc2)CC1c1ccc(Oc2ccccc2)cc1 (racemic) [Compound 9] | 0 | 17 | 95 | 0 | 82 | 78 | 99 | 99 | – | – | – | – | – | – | – | – | – | – |
| CN1OC(C)(c2cccnc2)CC1c1ccc(Oc2ccccc2)cc1 (racemic) [Compound 10] | 0 | 0 | 98 | 0 | 82 | 0 | 93 | 98 | – | – | – | – | – | – | – | – | – | – |
| CN1OC(C)(c2cccnc2)CC1c1ccc(-c2ccccc2)cc1 (racemic) [Compound 11] | 0 | 0 | 97 | 0 | 91 | 26 | 99 | 99 | – | – | – | – | – | – | – | – | – | – |
| CN1OC(C)(c2cccnc2)CC1c1ccc(-c2ccccc2)cc1 (racemic) [Compound 12] | 0 | 0 | 82 | 0 | 74 | 0 | 99 | 29 | – | – | – | – | – | – | – | – | – | – |
| CN1OC(C)(c2cccnc2)CC1c1ccc(-c2ccc(OC(F)(F)F)cc2)cc1 (racemic) [Compound 18] | – | – | – | – | – | – | – | – | 0* % | 0* % | 0* % | 0* % | 58* % | 0* % | 7* % | 0* % | 0* % | – |
| CN1OC(C)(c2cccnc2)CC1c1ccc(Oc2ccc(F)cc2)cc1 (racemic) [Compound 19] | 0 | 0 | 99 | 0 | 91 | 7 | 98 | 98 | – | – | – | – | – | – | – | – | – | 98 |
| CN1OC(C)(c2cccnc2)CC1c1ccc(Oc2ccc(F)cc2)cc1 (racemic) [Compound 20] | 0 | 0 | 78 | 0 | 92 | 0 | 91 | 0 | – | – | – | – | – | – | – | – | – | 92 |
| CN1OC(c2cccnc2)(C(F)(F)F)CC1c1ccc(-c2ccccc2)cc1 (racemic) [Compound 23] | 0 | 0 | 97 | 0 | 0 | 4 | 99 | 0 | – | – | – | – | – | – | – | – | – | 98 |
| CN1OC(c2cccnc2)(C(F)(F)F)CC1c1ccc(-c2ccccc2)cc1 (racemic) [Compound 24] | 0 | 0 | 0 | 0 | 45 | 0 | 99 | 0 | – | – | – | – | – | – | – | – | – | 100 |
| Cc1ccc(-c2ccc(C3CC(c4cccnc4)(C(F)(F)F)ON3C)cc2)cc1 (racemic) [Compound 25] | – | – | – | – | – | – | – | – | 0* % | 0* % | 0* % | 0* % | 86* % | 0* % | 0* % | 100* % | 71* % | – |
| Cc1ccc(-c2ccc(C3CC(c4cccnc4)(C(F)(F)F)ON3C)cc2)cc1 (racemic) [Compound 26] | – | – | – | – | – | – | – | – | 0* % | 0* % | 0* % | 0* % | 75* % | 0* % | 0* % | 96* % | 0* % | – |
| CN1OC(c2cccnc2)(C(F)(F)F)CC1c1ccc(Br)cc1 (racemic) [Compound 29] | – | – | – | – | – | – | – | – | 0* % | 0* % | 67* % | 0* % | 76* % | 0* % | 83* % | 98* % | 0* % | – |
| CN1OC(c2cccnc2)(C(F)(F)F)CC1c1ccc(Br)cc1 (racemic) [Compound 30] | 0 | 0 | 92 | 58 | 89 | 0 | 100 | 0 | – | – | – | – | – | – | – | – | – | 83 |
| Cc1cccc(-c2ccc(C3CC(c4cccnc4)(C(F)(F)F)ON3C)cc2)c1C (racemic) [Compound 31] | – | – | – | 0 | 0 | – | – | – | 0* % | 0* % | 0* % | – | 50* % | – | 0* % | 98* % | 0* % | – |
| Cc1cccc(-c2ccc(C3CC(c4cccnc4)(C(F)(F)F)ON3C)cc2)c1C (racemic) [Compound 32] | 0 | 0 | 0 | 9 | 0 | 0 | 97 | 0 | – | – | – | – | – | – | – | – | – | 85 |
| CN1O[C@](C)(c2cccnc2)C[C@@H]1c1ccc(Cl)cc1 (relative stereo) [Compound 1, rel-3-[(3R,5S)-3-(4-chlorophenyl)-2,5-dimethyl-5-isoxazolidinyl]pyridine] | 0 | 0 | 100 | 0 | 0 | 0 | 97 | 83 | – | – | – | – | – | – | – | – | – | – |
| CN1O[C@@](C)(c2cccnc2)C[C@@H]1c1ccc(Cl)cc1 (relative stereo) [Compound 2, rel-3-[(3R,5R)-3-(4-chlorophenyl)-2,5-dimethyl-5-isoxazolidinyl]pyridine] | 0 | 0 | 99 | 17 | 0 | 0 | 72 | 0 | – | – | – | – | – | – | – | – | – | – |
| CN1O[C@](C)(c2cnccn2)C[C@@H]1c1ccc(-c2ccccc2)cc1 (relative stereo) [Compound 21, rel-2-[(3R,5S)-3-[1,1′-biphenyl]-4-yl-2,5-dimethyl-5-isoxazolidinyl]pyrazine] | – | – | – | – | – | – | – | – | 0* % | 0* % | 0* % | 0* % | 95* % | 0* % | 62* % | 97* % | 0* % | – |
| CN1O[C@@](C)(c2cnccn2)C[C@@H]1c1ccc(-c2ccccc2)cc1 (relative stereo) [Compound 22] | – | – | – | – | – | – | – | – | 0* % | 0* % | 0* % | 0* % | 97* % | 0* % | 0* % | 86* % | 0* % | – |
| CN1OC(C)(c2cccnc2)CC1c1ccc(Cl)c(Cl)c1 (stereo not shown) [Compound 5] | 0 | 0 | 0 | 0 | 0 | 51 | 98 | 91 | – | – | – | – | – | – | – | – | – | – |
| CN1OC(C)(c2cccnc2)CC1c1ccc(Cl)c(Cl)c1 (stereo not shown) [Compound 6] | 0 | 0 | 0 | 17 | 0 | 0 | 99 | 0 | – | – | – | – | – | – | – | – | – | – |
